The values that follow come from PMC9736157 (Molecules, 2022).

Data set [1] concerns the target T1, B-RAF (V600E) (Homo sapiens, UniProt P15056, V600E).
T1 construct: purchased BPS Bioscience
The data set is described as follows: BRAF^V600E inhibition assay (B-RAF (V600E) Kinase Assay Kit, Kinase-Glo MAX). Format: biochemical. To be noted: isolated BRAF^V600E, ATP 10 μM, 30 °C, 45 min; three experiments in duplicate; read-out: BRAF (V600E) Kinase Activity IC50 (nM ± SEM). The method, then: In a 96-well plate, the different inhibitor solutions in DMSO were mixed with Buffer, ATP (10 μM) and Raf substrate. […] After a 15 min delay to equilibrate plate temperature, 50 μL of Kinase-Glo Max was added in each well, and the luminescence was measured according to supplier’s instruction. The results, reported as IC50 ± S.E.M., were calculated with GrapPad Prism 7 and derive from three different experiments run in duplicate.
(In general: Kinase-Glo measures the ATP left after a reaction by luminescence.)

Data set [2] in a line: Stability in RPMI cell medium. The class given is in vitro ADME. The conditions noted are these: RPMI cell culture medium with 10% FBS, RPMI with 10% FBS, 37 °C. The method, then: (§1) Stability of compounds was determined in RPMI medium and in human serum. DMSO stock solutions of compounds (10 mM) was added to RPMI (Sigma–Aldrich, Darmstadt, Germany) competed with 10% fetal bovine serum (FBS) plus 2 mM glutamine, penicillin (100 IU/mL), and streptomycin (100 μγ/mL; Sigma–Aldrich, Darmstadt, Germany) or to human serum (sterile-filtered from human male AB plasma, Sigma–Aldrich, Darmstadt, Germany), to obtain the 100 μM final concentration with 1% of DMSO. The resulting solutions were incubated at 37 °C for 48 h. At appropriate time intervals (0, 1, 5, 24 and 48 h), 300 µL of the reaction mixture was withdrawn and added to 300 µL of acetonitrile 0.1% TFA. The samples were vortexed, sonicated for 3 min and then centrifuged for 5 min at 2500× g. The clear supernatant was filtered through a PTFE 0.45 μm filter (VWR) and analyzed by RP-HPLC. Each experiment was independently repeated at least three times, and results are expressed as a percentage of unmodified compound over time. The half-life was determined by fitting the data with a one phase exponential decay equation (Graph Pad, Prism software vr. 5, GraphPad Software Inc., San Diego, CA, USA). […]
(§2) The column effluent was monitored at 226 and 300 nm, referenced against a 800 nm wavelength. […] Quantitation of compounds was obtained by calibration curves (linearity determined in a concentration range of 1–100 µM, r^2 > 0.99).

A short description of data set [3]: Stability in human serum. The class given is in vitro ADME. To be noted: male, 37 °C. As to the method:
as §1, §2

The test system of data set [4] is A375 melanoma cell line. Nature of the data set: Antiproliferative activity, CellTiter-Glo, A375. The class given is cell-based. The conditions noted are these: Homo sapiens, A-375, A375, 72 h. The method, then: Based on the previous preliminary tests, we sought to investigate the ability of synthesized compounds 5–15 and reference 1 in inhibiting the proliferation of BRAF^V600E mutant cancer cells. A first screening was conducted in A375 melanoma cell lines (Table 1, Figure S2). Encorafenib was employed for comparison.
(§3) The ability of compounds 5, 10, 11, 15–selected based on their chemical diversity–to inhibit cell proliferation was then tested both in A375 and in Colo205 cancer cell lines. […] P5B was obtained by joining the BRAF inhibitor BI 882370 to pomalidomide through a five PEG unit spacer (Figure S3). In compound P5B, the linker length was of 17 atoms, the same length of the spacer used to generate our compound 10. A375 and Colo205 cells were treated for 72 h with compounds 5, 10, 11, 15, and P5B, and the antiproliferative activity was measured by a luminescent ATP-based assay, which determines the number of viable cells based on their metabolic activity. […] However, P5B was more efficient in inhibiting tumor cell viability in comparison with the other selected compounds.
(§4) Cell viability was evaluated by means of CellTiter-Glo Luminescent Assay (Promega), which allows users to measure the ATP in the cell supernatant. The assay was performed according to manufacturer’s instructions. In brief, 4.10^3 A375 or Colo205 were seeded into 96-well plates and allowed to adhere at the wall overnight. Cells were treated for 72 h with BRAF inhibitor compounds. Then, 90 µL of the cell culture medium was transferred in a white 96-well plate, to which 10 µL of CellTiter-Glo was added before measurement of luminescence. Luminescence was measured by the SPARK M10 (Tecan, Männedorf, Switzerland) plate reader.

Data set [5] has as its system Colo205 cells. The data set is described as follows: Cell permeability in Colo205 cells. The class given is in vitro ADME. The conditions noted are these: Colo205 cells (Table S1).
The subject of data set [6] is Colo205 cell line. The data set is described as follows: Antiproliferative activity, CellTiter-Glo, Colo205. The class given is cell-based. The conditions noted are these: Homo sapiens, COLO 205; Colo205, 72 h (Figure 6b); read-out: Antiproliferative activity IC50 (nM ± SEM). The method, then: as §3, §4
Data set [7] relates to T2, BRAF^V600E.
T2 construct: endogenous in cells; host or cells: A375 and Colo205 cell lines
Nature of the data set: Western blot, BRAF^V600E degradation in A375. Format: cell-based. To be noted: for BRAF^V600E degradation: A375, 24 h, 100–500 nM; for BRAF^V600E degradation at higher concentration: A375, up to 10 µM (Figure S4). The method, then:
(§5) Finally, we investigated the capability of the most antiproliferative compounds in interfering with BRAF pathway, favoring target degradation. To this end, Western blot analysis was conducted 24 h after incubation with 10 and 11 in both A375 and Colo205 cell lines. […] This observation was consistent with their ability to inhibit BRAF^V600E.
(§6) To measure the capability of our compounds to interfere with BRAF pathway, pre-treated A375 and Colo205 cells were lysed. We then performed protein analysis through Western blot by using the following primary antibodies: anti-phospho ERK 1/2 (clone E10; dilution 1:1000; Cell Signaling Technology, Danvers, MA, USA) and anti-ERK (clone 137F5; dilution 1:1000; Cell Signaling Technology); anti-phospho MEK (clone S217/221; dilution 1:1000; Cell Signaling Technology); anti-MEK1,2 (clone 9122; dilution 1:1000; Cell Signaling Technology); anti-BRAF v600e (dilution 1:1000; Abcam, Cambridge, UK); and anti-total BRAF (dilution 1:1000; ThermoFisher, Waltham, MA, USA). Vinculin (clone E1E9B; dilution 1:1000; Cell Signaling Technology) was used as a loading control. The total protein amount was determined using the bicinchoninic acid (BCA) protein assay reagent (Thermo Scientific, Waltham, MA, USA). Equivalent amounts of protein were separated by SDS–PAGE on precast Bolt 4–12% Bis-Tris gel (Invitrogen, Carlsbad, CA, USA). Proteins were then transferred from gel to nitrocellulose with a Trans-Blot Turbo transfer system (Biorad, Hercules, CA, USA), probed with goat anti-rabbit IgG (H+L) secondary antibody, HRP conjugate (Invitrogen) or goat anti-mouse IgG (H+L) secondary antibody, HRP conjugate (Jackson ImmunoResearch Inc., Langcaster, PA, USA), and detected using enhanced chemiluminescence technique (Western Lightning Plus-ECL, Enhanced Chemiluminescence Substrate; Perkin Elmer, catalog # NEL105001EA, Waltham, MA, USA).
In general terms: A western blot detects proteins with antibodies after separation by electrophoresis.

Data set [8] has as its system T2, BRAF^V600E. The data set is described as follows: Western blot, BRAF^V600E degradation in Colo205. The class given is cell-based. The conditions noted are these: for BRAF^V600E degradation: Colo205, 24 h, 100–500 nM; for BRAF^V600E degradation at higher concentration: Colo205, up to 10 µM (Figure S4). The method, then: as §5, §6
Data set [9] deals with phosphorylation of MEK and ERK. Nature of the data set: Western blot, BRAF signaling in A375. Format: cell-based. The conditions noted are these: A375, 24 h incubation. The method, then: as §5
(§7) To measure the capability of our compounds to interfere with BRAF pathway, pre-treated A375 and Colo205 cells were lysed. […] The total protein amount was determined using the bicinchoninic acid (BCA) protein assay reagent (Thermo Scientific, Waltham, MA, USA). […] Proteins were then transferred from gel to nitrocellulose with a Trans-Blot Turbo transfer system (Biorad, Hercules, CA, USA), probed with goat anti-rabbit IgG (H+L) secondary antibody, HRP conjugate (Invitrogen) or goat anti-mouse IgG (H+L) secondary antibody, HRP conjugate (Jackson ImmunoResearch Inc., Langcaster, PA, USA), and detected using enhanced chemiluminescence technique (Western Lightning Plus-ECL, Enhanced Chemiluminescence Substrate; Perkin Elmer, catalog # NEL105001EA, Waltham, MA, USA).

The test system of data set [10] is phosphorylation of MEK and ERK. The data set is described as follows: Western blot, BRAF signaling in Colo205. The class given is cell-based. To be noted: Colo205, 24 h incubation. The method, then: as §5, §7
Setting [11] is: first screening (Table 1), read-out: Antiproliferative Activity IC50 ± SEM.
Setting [12] is: second set of experiments (Figure 6a), read-out: Antiproliferative activity IC50 (nM ± SEM).

Where two headings read alike, the source gives them in different places.

T1 sequence (P15056 whole entry V600E): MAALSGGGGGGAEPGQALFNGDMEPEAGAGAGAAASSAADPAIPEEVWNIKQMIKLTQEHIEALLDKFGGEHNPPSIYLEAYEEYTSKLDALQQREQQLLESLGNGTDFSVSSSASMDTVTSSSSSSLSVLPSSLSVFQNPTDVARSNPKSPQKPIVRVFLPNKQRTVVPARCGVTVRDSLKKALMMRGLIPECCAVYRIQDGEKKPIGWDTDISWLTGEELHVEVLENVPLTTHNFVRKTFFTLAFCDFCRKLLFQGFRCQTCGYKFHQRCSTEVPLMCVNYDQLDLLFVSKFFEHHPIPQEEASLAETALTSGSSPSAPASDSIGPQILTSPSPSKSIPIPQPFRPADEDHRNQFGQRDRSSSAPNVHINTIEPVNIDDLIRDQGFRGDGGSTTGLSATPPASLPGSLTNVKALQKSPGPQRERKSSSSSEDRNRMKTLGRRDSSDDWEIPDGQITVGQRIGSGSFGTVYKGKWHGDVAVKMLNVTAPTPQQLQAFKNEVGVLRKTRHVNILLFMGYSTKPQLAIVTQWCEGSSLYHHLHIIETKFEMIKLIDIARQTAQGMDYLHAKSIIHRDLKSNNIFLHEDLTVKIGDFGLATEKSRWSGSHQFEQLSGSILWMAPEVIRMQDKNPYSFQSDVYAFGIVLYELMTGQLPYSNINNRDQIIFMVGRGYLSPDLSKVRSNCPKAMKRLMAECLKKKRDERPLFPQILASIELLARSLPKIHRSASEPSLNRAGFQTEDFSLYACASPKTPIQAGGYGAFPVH

`CC(C)n1cc(-c2ccnc(NC[C@H](C)NC(=O)CCOCCOCCOCCNc3cccc4c3C(=O)N(C3CCC(=O)NC3=O)C4=O)n2)c(-c2cc(Cl)cc(NS(C)(=O)=O)c2F)n1` (stereo partly drawn) [Compound 8, N-((S)-1-((4-(3-(5-chloro-2-fluoro-3-(methylsulfonamido)phenyl)-1-isopropyl-1H-pyrazol-4-yl)pyrimidin-2-yl)amino)propan-2-yl)-3-(2-(2-(2-((2-(2,6-dioxopiperidin-3-yl)-1,3-dioxoisoindolin-4-yl)amino)ethoxy)ethoxy)ethoxy)propanamide]: the IC50 is 57 ± 7 nM in data set [1] and 1760 ± 287 nM in [4] (setting [11]). Also, the half-life at 100 μM is 21 h in [2] and 24 h in data set [3]. Also, the cell permeability result in data set [5] is listed as “ability to reach the cytosolic compartment”.

On to `CC(C)n1cc(-c2ccnc(NC[C@H](C)NC(=O)CCOCCOCCOCCOCCOCCNc3cccc4c3C(=O)N(C3CCC(=O)NC3=O)C4=O)n2)c(-c2cc(Cl)cc(NS(C)(=O)=O)c2F)n1` (stereo partly drawn) [Compound 10, N-((S)-1-((4-(3-(5-chloro-2-fluoro-3-(methylsulfonamido)phenyl)-1-isopropyl-1H-pyrazol-4-yl)pyrimidin-2-yl)amino)propan-2-yl)-1-((2-(2,6-dioxopiperidin-3-yl)-1,3-dioxoisoindolin-4-yl)amino)-3,6,9,12,15-pentaoxaoctadecan-18-amide], for which the IC50 in data set [1] amounted to 75 ± 17 nM; in data set [4] (setting [11]), 132 ± 1.95 nM; in data set [4] (setting [12]), 194 ± 36 nM; in data set [6], 31 ± 10 nM. The half-life at 100 μM was 19 h in [2] and 23 h in [3]. Moreover, the “BRAF^V600E degradation” value in data set [7] and in data set [8] was “not able to induce BRAF^V600E degradation” in each case. The “BRAF^V600E degradation at higher concentration” value in data set [7] and in data set [8] was “no degradation of the target protein” throughout. Further, the “phosphorylation of MEK and ERK” value in [9] was “able to decrease phosphorylation of MEK and ERK”; in [10], “able to decrease phosphorylation of MEK and ERK”.

In the case of `CC(C)n1cc(-c2ccnc(NC[C@H](C)NC(=O)CCOCCOCCn3cc(CNc4cccc5c4C(=O)N(C4CCC(=O)NC4=O)C5=O)nn3)n2)c(-c2cc(Cl)cc(NS(C)(=O)=O)c2F)n1` (stereo partly drawn) [Compound 11, N-((S)-1-((4-(3-(5-chloro-2-fluoro-3-(methylsulfonamido)phenyl)-1-isopropyl-1H-pyrazol-4-yl)pyrimidin-2-yl)amino)propan-2-yl)-3-(2-(2-(4-(((2-(2,6-dioxopiperidin-3-yl)-1,3-dioxoisoindolin-4-yl)amino)methyl)-1H-1,2,3-triazol-1-yl)ethoxy)ethoxy)propanamide], the IC50 was determined as 43 ± 16 nM in data set [1], 389 ± 15.1 nM in data set [4] (setting [11]), 417 ± 33 nM in data set [4] (setting [12]) and 104 ± 20 nM in data set [6]. The “BRAF^V600E degradation” value in data set [7] and in data set [8] was “not able to induce BRAF^V600E degradation” each time. The “BRAF^V600E degradation at higher concentration” value in [7] and in data set [8] was “no degradation of the target protein” throughout. The “phosphorylation of MEK and ERK” value in data set [9] is “able to decrease phosphorylation of MEK and ERK”; in data set [10], “able to decrease phosphorylation of MEK and ERK”.

What is called IC50 is the concentration that inhibits the measured activity by half. As a reminder, the half-life is how long it takes for the measured level to halve. Higher therefore signals slow decline.
